This is an account of results in patent US11673884B2, “Matrix metalloproteinase (MMP) inhibitors and methods of use thereof” (Foresee Pharmaceuticals Co., Ltd., priority 2019, dated 2023).

Common to all, as to format: biochemical
For one experiment, the target named is recombinant human MMP-7 (Homo sapiens (Human), UniProt P09237). Description: MMP selectivity assay, MMP-7. Particulars: Table 2 selectivity profile; read-out: IC50, Target: MMP 7. How it is done: (§1) The inhibitory effect of compounds on the rate of cleaving fluorogenic MMP substrate (Enzo, BML-P128) by recombinant human MMP-12 catalytic domain (Enzo, BML-SE138) was carried out by methods known in the art. Briefly, to each well of a 96-well black opaque plate, all the reagents were sequentially added by pipetting, and the final reaction contained 4 nM of recombinant human MMP-12 catalytic domain, 4 μM of fluorogenic MMP substrate, and various concentrations (0.057 nM to 1,000 nM) of tested compound dilutions in HEPES buffer (pH 7.5) containing 10 mM of CaCl2, 0.01% Brij® 35 (polyoxyethylene (23) lauryl ether), and 0.1 mg/ml of BSA.
Chain of recombinant human MMP-7 (P09237 95-267): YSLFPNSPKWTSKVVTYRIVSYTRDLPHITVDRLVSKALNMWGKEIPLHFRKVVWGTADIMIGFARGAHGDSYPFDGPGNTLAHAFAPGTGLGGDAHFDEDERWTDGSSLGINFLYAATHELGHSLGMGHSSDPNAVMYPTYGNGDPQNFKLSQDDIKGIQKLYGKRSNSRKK
(§2) The enzyme and compounds were pre-incubated on a shaker to mix in wells. After an hour of mixing, fluorogenic substrate was added to each well. Reaction without enzyme was used as a blank control in the plate. The plate was then fed into a plate reader to measure fluorescence intensity at Excitation/Emission wavelengths of 340 nm/440 nm every 10 mins for at least 1 hour at 37° C. The IC50 of each compound in MMP-12 inhibition was determined by using a readout obtained at time point 30 minutes.
(§3) The MMP selectivity assay was performed by using other recombinant human MMPs, including MMP-1, MMP-2, MMP-3, MMP-7, MMP-8, MMP-9, MMP-10, MMP-12, MMP-13, and MMP-14. The IC50 of the compounds for the other recombinant human MMPs was determined as described above in Example 1, and are shown in Table 2. The IC50 values are reported as follows: A=less than 1 nM, B=1 nM to 10 nM, C=10 nM to 100 nM, D=greater than 100 nM.

The next experiment concerns the target recombinant human MMP-3 (Homo sapiens (Human), UniProt P08254). The experiment can be described thus: MMP selectivity assay, MMP-3. Particulars: Table 2 selectivity profile; read-out: IC50, Target: MMP 3. On the procedure: as §1, §2, §3
For another experiment, the target named is recombinant human MMP-8 (Homo sapiens (Human), UniProt P22894). Description: MMP selectivity assay, MMP-8. Particulars: Table 2 selectivity profile; read-out: IC50, Target: MMP 8. On the procedure: as §1, §2, §3
Chain of recombinant human MMP-8 (P22894 101-467): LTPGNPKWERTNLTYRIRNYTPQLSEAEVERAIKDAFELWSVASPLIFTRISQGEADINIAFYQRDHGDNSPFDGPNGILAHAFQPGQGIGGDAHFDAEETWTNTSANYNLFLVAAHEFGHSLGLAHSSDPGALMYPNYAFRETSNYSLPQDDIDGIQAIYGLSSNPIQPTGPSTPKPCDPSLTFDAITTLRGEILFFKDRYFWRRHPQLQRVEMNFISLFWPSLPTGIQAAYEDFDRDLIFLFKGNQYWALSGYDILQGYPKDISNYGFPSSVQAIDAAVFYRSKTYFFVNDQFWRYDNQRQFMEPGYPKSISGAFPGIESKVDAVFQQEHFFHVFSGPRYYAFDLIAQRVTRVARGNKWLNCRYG
A further experiment addresses recombinant human MMP-1 (Homo sapiens (Human), UniProt P03956). Description: MMP selectivity assay, MMP-1. Particulars: Table 2 selectivity profile; read-out: IC50, Target: MMP 1. On the procedure:
as §1, §2, §3

For the next experiment, the target named is recombinant human MMP-9 (Homo sapiens (Human), UniProt P14780). The experiment can be described thus: MMP selectivity assay, MMP-9. Particulars: Table 2 selectivity profile; read-out: IC50, Target: MMP 9. How it is done:
as §1, §2, §3

For the next experiment, the target named is recombinant human MMP-13 (Homo sapiens (Human), UniProt P45452). Description: MMP selectivity assay, MMP-13. Particulars: Table 2 selectivity profile; read-out: IC50, Target: MMP 13. How it is done:
as §1, §2, §3

The target of a further experiment is recombinant human MMP-10 (Homo sapiens (Human), UniProt P09238). The experiment can be described thus: MMP selectivity assay, MMP-10. Particulars: Table 2 selectivity profile; read-out: IC50, Target: MMP 10. How it is done: as §1, §2, §3
Chain of recombinant human MMP-10 (P09238 99-476): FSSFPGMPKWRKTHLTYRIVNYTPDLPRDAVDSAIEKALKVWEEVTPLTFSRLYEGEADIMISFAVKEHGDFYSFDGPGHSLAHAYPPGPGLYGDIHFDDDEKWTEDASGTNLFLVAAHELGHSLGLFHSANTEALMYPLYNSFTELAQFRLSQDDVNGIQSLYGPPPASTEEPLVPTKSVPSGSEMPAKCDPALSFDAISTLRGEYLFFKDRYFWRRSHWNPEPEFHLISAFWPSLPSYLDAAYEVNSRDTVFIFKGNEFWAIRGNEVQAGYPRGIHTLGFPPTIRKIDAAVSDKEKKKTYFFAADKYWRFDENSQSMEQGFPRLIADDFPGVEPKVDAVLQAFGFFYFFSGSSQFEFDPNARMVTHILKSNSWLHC
Experiment [1] has as its target recombinant human MMP-12 catalytic domain (Homo sapiens (Human), UniProt P39900). Description: MMP-12 inhibitory assay, fluorogenic substrate cleavage. On the procedure: as §1, §2
For another experiment, the target named is recombinant human MMP-14 (Homo sapiens (Human), UniProt P50281). Description: MMP selectivity assay, MMP-14. Particulars: Table 2 selectivity profile; read-out: IC50, Target: MMP 14. On the procedure:
as §1, §2, §3

The next experiment has as its target recombinant human MMP-2 (Homo sapiens (Human), UniProt P08253). The experiment can be described thus: MMP selectivity assay, MMP-2. Particulars: Table 2 selectivity profile; read-out: IC50, Target: MMP 2. How it is done: as §1, §2, §3
[2] abbreviates: Table 1, readout at time point 30 minutes, read-out: MMP-12 IC50.
[3] abbreviates: Table 2 selectivity profile, read-out: IC50, Target: MMP 12.

Read-outs that look alike come from different tables or passages of the source.

Chain of recombinant human MMP-9 (P14780 94-707): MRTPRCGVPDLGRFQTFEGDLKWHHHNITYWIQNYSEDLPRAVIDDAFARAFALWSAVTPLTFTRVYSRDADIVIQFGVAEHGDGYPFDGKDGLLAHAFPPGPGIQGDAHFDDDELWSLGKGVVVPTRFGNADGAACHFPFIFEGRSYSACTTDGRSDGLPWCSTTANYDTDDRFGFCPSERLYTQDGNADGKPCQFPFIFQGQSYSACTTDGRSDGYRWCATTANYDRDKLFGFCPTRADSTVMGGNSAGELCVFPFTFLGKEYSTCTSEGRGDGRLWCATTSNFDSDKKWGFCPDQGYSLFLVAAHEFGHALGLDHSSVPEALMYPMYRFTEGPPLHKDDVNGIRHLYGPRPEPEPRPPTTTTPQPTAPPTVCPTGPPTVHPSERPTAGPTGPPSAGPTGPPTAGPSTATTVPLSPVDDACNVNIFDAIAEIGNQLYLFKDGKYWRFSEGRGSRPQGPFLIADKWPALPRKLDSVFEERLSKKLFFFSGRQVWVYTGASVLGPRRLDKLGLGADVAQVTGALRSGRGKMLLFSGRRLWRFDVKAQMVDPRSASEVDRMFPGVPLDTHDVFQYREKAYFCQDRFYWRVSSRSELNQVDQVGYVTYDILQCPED
Chain of recombinant human MMP-12 catalytic domain (P39900 106-268): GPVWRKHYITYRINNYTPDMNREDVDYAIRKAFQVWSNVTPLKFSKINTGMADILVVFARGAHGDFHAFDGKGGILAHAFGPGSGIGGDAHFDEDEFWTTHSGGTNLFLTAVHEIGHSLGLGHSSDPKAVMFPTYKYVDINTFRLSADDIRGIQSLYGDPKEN
Chain of recombinant human MMP-2 (P08253 110-660): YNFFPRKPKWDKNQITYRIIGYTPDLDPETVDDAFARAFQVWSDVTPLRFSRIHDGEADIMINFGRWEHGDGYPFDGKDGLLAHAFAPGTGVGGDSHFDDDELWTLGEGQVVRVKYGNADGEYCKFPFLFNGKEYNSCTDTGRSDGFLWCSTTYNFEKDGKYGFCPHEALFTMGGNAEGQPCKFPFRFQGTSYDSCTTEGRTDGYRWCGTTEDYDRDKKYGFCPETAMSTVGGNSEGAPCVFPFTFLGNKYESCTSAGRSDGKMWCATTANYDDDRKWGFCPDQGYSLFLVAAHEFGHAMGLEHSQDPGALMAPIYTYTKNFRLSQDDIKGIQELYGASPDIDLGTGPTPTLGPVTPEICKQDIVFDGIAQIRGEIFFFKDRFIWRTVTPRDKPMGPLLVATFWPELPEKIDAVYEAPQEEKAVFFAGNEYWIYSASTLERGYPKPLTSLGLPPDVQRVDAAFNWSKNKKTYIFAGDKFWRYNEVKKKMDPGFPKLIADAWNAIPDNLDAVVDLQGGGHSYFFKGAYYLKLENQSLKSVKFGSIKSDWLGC
Chain of recombinant human MMP-3 (P08254 100-477): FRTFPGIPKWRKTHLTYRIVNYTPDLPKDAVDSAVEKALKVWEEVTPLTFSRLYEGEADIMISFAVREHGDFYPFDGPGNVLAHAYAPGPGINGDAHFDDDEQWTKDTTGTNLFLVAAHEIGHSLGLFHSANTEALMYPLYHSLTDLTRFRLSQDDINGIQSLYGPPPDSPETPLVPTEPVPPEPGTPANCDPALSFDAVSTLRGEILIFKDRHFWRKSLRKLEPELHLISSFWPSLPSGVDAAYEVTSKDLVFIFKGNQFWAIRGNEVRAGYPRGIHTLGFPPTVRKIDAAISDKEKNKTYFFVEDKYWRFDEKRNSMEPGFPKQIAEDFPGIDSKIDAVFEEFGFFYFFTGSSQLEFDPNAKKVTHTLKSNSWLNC
Chain of recombinant human MMP-1 (P03956 100-469): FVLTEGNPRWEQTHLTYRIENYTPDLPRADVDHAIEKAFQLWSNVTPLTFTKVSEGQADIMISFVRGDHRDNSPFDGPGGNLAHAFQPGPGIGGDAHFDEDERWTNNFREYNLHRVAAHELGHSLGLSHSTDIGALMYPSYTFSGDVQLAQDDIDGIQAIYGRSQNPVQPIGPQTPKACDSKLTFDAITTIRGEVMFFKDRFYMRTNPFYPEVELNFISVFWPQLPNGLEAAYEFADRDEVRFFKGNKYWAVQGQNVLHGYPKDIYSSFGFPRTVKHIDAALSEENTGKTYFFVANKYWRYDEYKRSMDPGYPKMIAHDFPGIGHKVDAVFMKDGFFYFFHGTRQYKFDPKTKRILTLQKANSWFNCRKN

On to `Cc1cc(C#Cc2ccc(Sc3ccoc3C3NC(=O)NC3=O)cc2)ccn1` (centres unmarked) [AC-1], for which the IC50 at recombinant human MMP-7, at recombinant human MMP-3, at recombinant human MMP-8, at recombinant human MMP-1, at recombinant human MMP-9 and on recombinant human MMP-13 was more than 100 nM each time. Moreover, the IC50 was more than 100 nM at recombinant human MMP-10; 10 to 100 nM in experiment [1] (setting [2]); 10 to 100 nM in experiment [1] (setting [3]); more than 100 nM on recombinant human MMP-14; more than 100 nM on recombinant human MMP-2.
As for `Cc1cc(C#Cc2ccc(Oc3ccncc3C3NC(=O)NC3=O)cc2)ccn1` (centres unmarked) [AC-7], the IC50 at recombinant human MMP-7, on recombinant human MMP-3, on recombinant human MMP-8, at recombinant human MMP-1, on recombinant human MMP-9 and on recombinant human MMP-13 was more than 100 nM each time. Moreover, the IC50 was more than 100 nM on recombinant human MMP-10; 1 to 10 nM in [1] (setting [2]); 1 to 10 nM in experiment [1] (setting [3]); more than 100 nM on recombinant human MMP-14; more than 100 nM on recombinant human MMP-2.
In the case of `Cc1cc(/C=C/c2ccc(Sc3cnn(C)c3C3NC(=O)NC3=O)cc2)ccn1` (centres unmarked) [AC-12], the IC50 at recombinant human MMP-7 is more than 100 nM; on recombinant human MMP-3, more than 100 nM; on recombinant human MMP-8, 10 to 100 nM; at recombinant human MMP-1 it was more than 100 nM; at recombinant human MMP-9, more than 100 nM; on recombinant human MMP-13 it was 10 to 100 nM. The IC50 on recombinant human MMP-10 was more than 100 nM; in experiment [1] (setting [2]), less than 1 nM; in experiment [1] (setting [3]) it was less than 1 nM; at recombinant human MMP-14, more than 100 nM; at recombinant human MMP-2, 1 to 10 nM.
In the case of `Cc1cc(C#Cc2ccc(Sc3cnn(C)c3C3NC(=O)NC3=O)cc2)ccn1` (centres unmarked) [AC-11], the half-maximal inhibitory concentration (IC50) on recombinant human MMP-7 was more than 100 nM; on recombinant human MMP-3, more than 100 nM; at recombinant human MMP-8, 10 to 100 nM; at recombinant human MMP-1, more than 100 nM; on recombinant human MMP-9 it was more than 100 nM; at recombinant human MMP-13 it was more than 100 nM. In addition, the IC50 is more than 100 nM on recombinant human MMP-10; less than 1 nM in experiment [1] (setting [2]); less than 1 nM in [1] (setting [3]); more than 100 nM at recombinant human MMP-14; 10 to 100 nM on recombinant human MMP-2.
Turning to `Cc1cc(/C=C/c2ccc(Sc3ccsc3C3NC(=O)NC3=O)cc2)ccn1` (centres unmarked) [AC-10], the IC50 at recombinant human MMP-7 was more than 100 nM; on recombinant human MMP-3 it was 10 to 100 nM; on recombinant human MMP-8, 1 to 10 nM; on recombinant human MMP-1 it was more than 100 nM; on recombinant human MMP-9 it was 10 to 100 nM; on recombinant human MMP-13, 1 to 10 nM. Moreover, the IC50 is more than 100 nM at recombinant human MMP-10; less than 1 nM in [1] (setting [2]); less than 1 nM in experiment [1] (setting [3]); more than 100 nM at recombinant human MMP-14; 1 to 10 nM on recombinant human MMP-2.
In the case of `Cc1cc(C#Cc2ccc(Sc3ccncc3C3NC(=O)NC3=O)cc2)ccn1` (centres unmarked) [AC-4], the IC50 on recombinant human MMP-7, at recombinant human MMP-3, at recombinant human MMP-8, on recombinant human MMP-1, at recombinant human MMP-9 and at recombinant human MMP-13 was more than 100 nM in each case. The IC50 at recombinant human MMP-10 was more than 100 nM; in experiment [1] (setting [2]) it was 1 to 10 nM; in experiment [1] (setting [3]), 1 to 10 nM; at recombinant human MMP-14, more than 100 nM; at recombinant human MMP-2 it was more than 100 nM.
Regarding `Cc1cc(/C=C/c2ccc(Oc3ccncc3C3NC(=O)NC3=O)cc2)ccn1` (centres unmarked) [AC-6], the IC50 at recombinant human MMP-7 was more than 100 nM; on recombinant human MMP-3 it was more than 100 nM; at recombinant human MMP-8, 10 to 100 nM; at recombinant human MMP-1, more than 100 nM; at recombinant human MMP-9, more than 100 nM; at recombinant human MMP-13, more than 100 nM. The IC50 is more than 100 nM on recombinant human MMP-10; less than 1 nM in experiment [1] (setting [2]); less than 1 nM in [1] (setting [3]); more than 100 nM at recombinant human MMP-14; 10 to 100 nM at recombinant human MMP-2.
Consider `Cc1cc(/C=C/c2ccc(Sc3ccoc3C3NC(=O)NC3=O)cc2)ccn1` (centres unmarked) [AC-2], for which the 50% inhibitory concentration (IC50) was more than 100 nM at recombinant human MMP-7; 10 to 100 nM on recombinant human MMP-3; 10 to 100 nM on recombinant human MMP-8; more than 100 nM on recombinant human MMP-1; 10 to 100 nM at recombinant human MMP-9; 10 to 100 nM on recombinant human MMP-13. In addition, the IC50 was more than 100 nM at recombinant human MMP-10; less than 1 nM in experiment [1] (setting [2]); less than 1 nM in [1] (setting [3]); more than 100 nM on recombinant human MMP-14; 1 to 10 nM at recombinant human MMP-2.
As for `CCC1(c2cnccc2Sc2ccc(/C=C/c3ccnc(C)c3)cc2)NC(=O)NC1=O` (centres unmarked) [AC-8], the IC50 in experiment [1] (setting [2]) is less than 1 nM.
In the case of `Cc1cc(/C=C/c2ccc(Sc3ccncc3C3NC(=O)NC3=O)cc2)ccn1` (centres unmarked) [AC-5], the IC50 at recombinant human MMP-7, at recombinant human MMP-3, at recombinant human MMP-8, at recombinant human MMP-1, on recombinant human MMP-9 and on recombinant human MMP-13 was more than 100 nM each time. In addition, the IC50 at recombinant human MMP-10 was more than 100 nM; in [1] (setting [2]), less than 1 nM; in [1] (setting [3]) it was less than 1 nM; at recombinant human MMP-14, more than 100 nM; at recombinant human MMP-2 it was 10 to 100 nM.
Consider `CCC1(c2occc2Sc2ccc(/C=C/c3ccnc(C)c3)cc2)NC(=O)NC1=O` (centres unmarked) [AC-3], for which the IC50 was more than 100 nM on recombinant human MMP-7; 10 to 100 nM on recombinant human MMP-3; 1 to 10 nM at recombinant human MMP-8; more than 100 nM at recombinant human MMP-1; 10 to 100 nM on recombinant human MMP-9; 10 to 100 nM at recombinant human MMP-13. For the same compound, the IC50 at recombinant human MMP-10 is 10 to 100 nM; in experiment [1] (setting [2]), less than 1 nM; in experiment [1] (setting [3]) it was less than 1 nM; on recombinant human MMP-14, more than 100 nM; at recombinant human MMP-2, 1 to 10 nM.
For `Cc1cc(C#Cc2ccc(Sc3ccsc3C3NC(=O)NC3=O)cc2)ccn1` (centres unmarked) [AC-9], the IC50 was more than 100 nM on recombinant human MMP-7; more than 100 nM at recombinant human MMP-3; 10 to 100 nM on recombinant human MMP-8; more than 100 nM at recombinant human MMP-1; more than 100 nM on recombinant human MMP-9; more than 100 nM on recombinant human MMP-13. Moreover, the IC50 was more than 100 nM on recombinant human MMP-10; less than 1 nM in experiment [1] (setting [2]); less than 1 nM in experiment [1] (setting [3]); more than 100 nM on recombinant human MMP-14; 10 to 100 nM on recombinant human MMP-2.
